# Assay results as given in patent EP0641797A1, “Cephem derivatives and antimicrobial agents containing the same” (KATAYAMA SEIYAKUSYO CO. Ltd., priority 1993, dated 1995).
# Where two headings read alike, the source gives them in different places.
# Columns and labels:
# Test in all cases: MIC on standard strains, standard method of Japan Society of Chemotherapy
# Assay type in all cases: cell-based
# [1] = tested on: E. coli CSH2(RE45)
# Experimental: (§1) Antimicrobial activity of the compounds of the present invention were measured using CTM (cefotiam) and FMOX (flomoxef) as control drugs in accordance with the standard method of Japan Society of Chemotherapy. Of the 25 standard strains used in this test, Staphylococcus aureus 167 and Staphylococcus aureus 195 belong to MRSA.
# (§2) In these tables, drugs tested are shown by the corresponding examples in which they were synthesized.
# [2] = tested on: S. aureus 167; details: Staphylococcus aureus; S. aureus 167 (MRSA)
# Experimental: as §1, §2
# [3] = tested on: S. marcescens IAM 1184
# Experimental: as §1, §2
# [4] = tested on: K. pneuminiae No. 42
# Experimental: as §1, §2
# [5] = tested on: E. cloacae ATCC 13407
# Experimental: as §1, §2
# [6] = tested on: S. aureus Smith
# Experimental: as §1, §2
# [7] = tested on: S. aureus 209p JC-1
# Experimental: as §1, §2
# [8] = tested on: S. marcescens No. 16-2; details: Serratia marcescens, NO.162
# Experimental: as §1, §2
# [9] = tested on: S. aureus 195; details: Staphylococcus aureus; S. aureus 195 (MRSA)
# Experimental: as §1, §2
# [10] = tested on: C. freundii ATCC 8090; details: Citrobacter freundii, ATCC8090, C. freundii ATCC 8090; read-out: MIC
# Experimental: as §1, §2
# [11] = tested on: P. cepacia; details: Burkholderia cepacia, read-out: MIC
# Experimental: as §1, §2
# [12] = tested on: S. epidemidis IAM 1296
# Experimental: as §1, §2
# [13] = tested on: E. cloacae Nek39; details: Enterobacter cloacae, NEK39, E. cloacae Nek39; read-out: MIC
# Experimental: as §1, §2
# [14] = tested on: M. luteus ATCC 9341; details: Micrococcus luteus, ATCC9341
# Experimental: as §1, §2
# [15] = tested on: P. aeruginosa NCTC 10490
# Experimental: as §1, §2
# [16] = tested on: P. vulugaris OX-19
# Experimental: as §1, §2
# [17] = tested on: A. faecalis ATCC 3750
# Experimental: as §1, §2
# [18] = tested on: E. coli NHIJ JC-2; details: Escherichia coli, NHIJJC2
# Experimental: as §1, §2
# [19] = tested on: P. mirabilis IFO 3849
# Experimental: as §1, §2
# [20] = tested on: B. subtilis ATCC 6633; details: Bacillus subtilis, ATCC6633, B. subtilis ATCC 6633; read-out: MIC
# Experimental: as §1, §2
# [21] = tested on: E. coli CSH2(RK1); details: Escherichia coli
# Experimental: as §1, §2
# [22] = tested on: A. calcoaceticos T59; details: read-out: MIC
# Experimental: as §1, §2
# [23] = tested on: K. pneuminiae IFO 3317
# Experimental: as §1, §2
# [24] = tested on: P. aeruginosa AKR17; details: Pseudomonas aeruginosa
# Experimental: as §1, §2
# [25] = tested on: M. morganii IFO 3848; details: Morganella morganii, IFO3848
# Experimental: as §1, §2
# [26] = Serratia marcescens, IAM1184, S. marcescens IAM 1184, read-out: MIC
# [27] = Enterobacter cloacae, ATCC13407, E. cloacae ATCC 13407, read-out: MIC
# [28] = Staphylococcus aureus, read-out: MIC
# [29] = Staphylococcus aureus, 209P, read-out: MIC
# [30] = Pseudomonas aeruginosa, NCTC10490, P. aeruginosa NCTC 10490, read-out: MIC
# [31] = Alcaligenes faecalis, ATCC3750, A. faecalis ATCC 3750, read-out: MIC
# [32] = Proteus mirabilis, IFO3849, P. mirabilis IFO 3849, read-out: MIC
SMILES,MIC ([1]; Escherichia coli) [µg/mL],MIC [2] [µg/mL],"MIC [3, 26] [µg/mL]",MIC [4] [µg/mL],"MIC [5, 27] [µg/mL]","MIC [6, 28] [µg/mL]","MIC [7, 29] [µg/mL]",MIC [8] [µg/mL],MIC [9] [µg/mL],MIC [10] [µg/mL],MIC [11] [µg/mL],MIC [12] [µg/mL],MIC [13] [µg/mL],MIC [14] [µg/mL],"MIC [15, 30] [µg/mL]",MIC [16] [µg/mL],"MIC [17, 31] [µg/mL]",MIC [18] [µg/mL],"MIC [19, 32] [µg/mL]",MIC [20] [µg/mL],other results
"CN(C)CCn1nnnc1SCC1=C(C(=O)O)N2C(=O)[C@@H](NC(=O)Cc3csc(N)n3)[C@H]2SC1 [CTM, cefotiam, reference compound]",0.2,> 100,6.25,0.39,50,1.56,1.56,> 100,> 100,0.78,> 100,0.39,> 100,0.39,> 100,0.39,6.25,0.2,0.78,0.39,MIC [1]: 0.39 µg/mL; MIC ([3]; S. marcescens IAM 1184): 3.13 µg/mL; MIC ([5]; E. cloacae ATCC 13407): >100 µg/mL; MIC [6]: 0.78 µg/mL; MIC [7]: 0.78 µg/mL; MIC ([15]; P. aeruginosa NCTC 10490): 100 µg/mL; MIC ([17]; A. faecalis ATCC 3750): 3.13 µg/mL; MIC ([19]; P. mirabilis IFO 3849): 0.39 µg/mL; MIC [21]: 0.2 µg/mL; MIC [22]: > 100 µg/mL; MIC [23]: 0.2 µg/mL; MIC [24]: > 100 µg/mL; MIC [25]: 0.2 µg/mL
"Nc1nc(/C(=N/O)C(=O)N[C@@H]2C(=O)N3C(C(=O)[O-])=C(C[n+]4cccc(-c5cscn5)c4)CS[C@H]23)cs1 [Ex. 9, 7β-[2-(2-aminothiazol-4-yl)-2-syn-hydroxyiminoacetamido]-3-[3-(thiazol-4-yl)pyridinio]methyl-3-cephem-4-carboxylate iodide]",0.39,6.25,0.39,0.39,1.56,0.2,0.1,50,1.56,0.2,> 100,0.05,50,0.05,3.13,0.39,3.13,0.2,0.39,0.2,MIC [21]: 0.39 µg/mL; MIC [22]: 12.5 µg/mL; MIC [23]: 0.2 µg/mL; MIC [24]: > 100 µg/mL; MIC [25]: 0.1 µg/mL
"Nc1nc(-c2cc[n+](CC3=C(C(=O)[O-])N4C(=O)[C@@H](NC(=O)/C(=N\O)c5csc(N)n5)[C@H]4SC3)cc2)no1 [Ex. 13, 7β-[2-(2-aminothiazol-4-yl)-2-syn-hydroxyiminoacetamido]-3-[4-(5-amino-1,2,4-oxadiazol-3-yl)pyridinio]methyl-3-cephem-4-carboxylate]",0.39,6.25,0.39,0.78,3.13,0.39,0.2,100,3.13,0.2,> 100,0.1,> 100,0.025,1.56,0.2,1.56,0.2,0.39,0.2,MIC [21]: 0.39 µg/mL; MIC [22]: 12.5 µg/mL; MIC [23]: 0.2 µg/mL; MIC [24]: > 100 µg/mL; MIC [25]: 0.1 µg/mL
"Nc1nc(/C(=N/O)C(=O)N[C@@H]2C(=O)N3C(C(=O)[O-])=C(C[n+]4ccc(-c5nsc(N)n5)cc4)CS[C@H]23)cs1 [Ex. 11, 7β-[2-(2-aminothiazol-4-yl)-2-syn-hydroxyiminoacetamido]-3-[4-(5-amino-1,2,4-thiadiazol-3-yl)pyridinio]methyl-3-cephem-4-carboxylate]",0.2,6.25,0.39,0.39,6.25,0.1,0.1,100,1.56,0.2,> 100,0.05,> 100,0.05,3.13,0.1,1.56,0.1,0.2,0.1,MIC [21]: 0.39 µg/mL; MIC [22]: 25 µg/mL; MIC [23]: 0.1 µg/mL; MIC [24]: > 100 µg/mL; MIC [25]: 0.05 µg/mL
